The test concerns the target CDK2 (human) (UniProt P24941). Kind of test: Enzyme Assay.

Our source for the IC50 values is the Kinase Knowledgebase extract (Sharma et al. 2016).

A value given as a limit tells only on which side of the number the result lay.

As for `CCOC(=O)c1cc(-c2csc(-c3ccnc(NCCc4cccs4)c3)n2)c(=O)[nH]c1C`, the concentration for half-maximal inhibition (IC50) was below 0.5 µM.
Next, `CCOC(=O)c1cc(-c2csc(-c3ccncc3)n2)c(=O)[nH]c1C(C)C`: below 0.5 µM; `CCOC(=O)c1cc(-c2csc(CS(=O)(=O)c3ccccc3)n2)c(=O)[nH]c1C`: below 0.5 µM; `CCOC(=O)c1cc(-c2csc(-c3c(Cl)cncc3Cl)n2)c(=O)[nH]c1C`: below 0.5 µM.
The molecule `CCc1[nH]c(=O)c(-c2csc(-c3ccncc3)n2)cc1C(=O)OCCCN(CC)CC` came in with an IC50 below 0.5 µM.
With `CCOC(=O)c1cc(-c2csc(-c3ccnc(NCc4ccco4)c3)n2)c(=O)[nH]c1C` the figure was below 0.5 µM; with `CCCc1[nH]c(=O)c(-c2csc(CS(=O)(=O)c3ccccc3)n2)cc1C(=O)OCC`, below 0.5 µM.
The molecule `CCOC(=O)c1cc(-c2csc(-c3ccnc(NC)c3)n2)c(=O)[nH]c1C(C)C` registered an IC50 below 0.5 µM.
With `Cc1[nH]c(=O)c(-c2csc(-c3ccnc(NCc4ccccn4)c3)n2)cc1C(=O)NCc1ccccn1` the figure was below 0.5 µM; with `CCOC(=O)c1cc(-c2csc(CS(=O)(=O)c3cccs3)n2)c(=O)[nH]c1CC`, below 0.5 µM.
Next, `CCOC(=O)c1cc(-c2csc(-c3ccnc(NCC4CC4)c3)n2)c(=O)[nH]c1C`: below 0.5 µM.
For `CCOC(=O)c1cc(-c2csc(CS(=O)(=O)Cc3ccc(F)cc3)n2)c(=O)[nH]c1C`, the IC50 is below 0.5 µM.
With `CCN(CC)CCCOC(=O)c1cc(-c2csc(-c3ccncc3)n2)c(=O)[nH]c1C(C)C` the figure was below 0.5 µM; with `CCCc1[nH]c(=O)c(-c2csc(-c3ccncc3)n2)cc1C(=O)OCC`, below 0.5 µM.
For `CCOC(=O)c1cc(-c2csc(CS(=O)(=O)c3ccccc3)n2)c(=O)[nH]c1COCc1ccccc1`, the IC50 was below 0.5 µM.
As to `CCOC(=O)c1cc(-c2csc(NC)n2)c(=O)[nH]c1C`, the IC50 is below 0.5 µM.
With `CCOC(=O)c1cc(-c2csc(CS(=O)(=O)c3cccs3)n2)c(=O)[nH]c1C(C)C` the figure was below 0.5 µM; with `CCOC(=O)c1cc(-c2csc(-c3ccnc(NCC(C)C)c3)n2)c(=O)[nH]c1C`, below 0.5 µM; with `CCCCNc1cc(-c2nc(-c3cc(C(=O)OCC)c(C)[nH]c3=O)cs2)ccn1`, below 0.5 µM.
With `CCc1ccc(-c2csc(-c3ccncc3)n2)c(=O)[nH]1` the figure was below 0.5 µM; with `CCOC(=O)c1cc(-c2csc(-c3ccnc(NCc4cccnc4)c3)n2)c(=O)[nH]c1C`, below 0.5 µM.
Next, `CCOC(=O)c1cc(-c2csc(-c3ccnc(N)c3)n2)c(=O)[nH]c1C`: below 0.5 µM; `CCOC(=O)c1cc(-c2csc(-c3ccncc3)n2)c(=O)[nH]c1CC`: below 0.5 µM; `Cc1[nH]c(=O)c(-c2csc(-c3ccncc3)n2)cc1C(=O)OC(C)(C)C`: below 0.5 µM.
Consider `CCOC(=O)c1cc(-c2csc(CS(=O)(=O)c3ccccc3)n2)c(=O)[nH]c1CC`, for which the 50% inhibitory concentration (IC50) was below 0.5 µM.
Next, `Cc1[nH]c(=O)c(-c2csc(-c3ccnc(NCC4CC4)c3)n2)cc1C(=O)NCC1CC1`: below 0.5 µM; `Cc1[nH]c(=O)c(-c2csc(-c3ccncc3)n2)cc1Br`: below 0.5 µM.
Next, `CCOC(=O)c1cc(-c2csc(CS(=O)(=O)c3ccccc3)n2)c(=O)[nH]c1C(C)C`: below 0.5 µM.
On to `CCOC(=O)c1cc(-c2csc(-c3ccnc(NCCN(CC)CC)c3)n2)c(=O)[nH]c1C`, for which the IC50 was below 0.5 µM.
Molecule `CCOC(=O)c1cc(-c2csc(CS(=O)(=O)c3ccccc3)n2)c(=O)[nH]c1C1CC1` returned an IC50 below 0.5 µM.
Next, `CCOC(=O)c1cc(-c2csc(-c3ccnc(NCCNC(C)=O)c3)n2)c(=O)[nH]c1C`: below 0.5 µM; `CCOC(=O)c1cc(-c2csc(C(C)(C)S(=O)(=O)c3ccccc3)n2)c(=O)[nH]c1C`: below 0.5 µM.
Next, `CCOC(=O)c1cc(-c2csc(-c3ccnc(Cl)c3)n2)c(=O)[nH]c1C`: below 0.5 µM; `CCOC(=O)c1cc(-c2csc(-c3ccnc(NCC4CCCC4)c3)n2)c(=O)[nH]c1C`: below 0.5 µM.
Next, `CCOC(=O)c1cc(-c2csc(-c3ccnc(NC)c3)n2)c(=O)[nH]c1C`: below 0.5 µM.
`CCOC(=O)c1cc(-c2csc(-c3ccnc(NCCNC(C)C)c3)n2)c(=O)[nH]c1C`: the IC50 is below 0.5 µM.
`CCCc1[nH]c(=O)c(-c2csc(CS(=O)(=O)c3cccs3)n2)cc1C(=O)OCC` returned a half-inhibitory concentration (IC50) below 0.5 µM.
Next, `CCOC(=O)c1cc(-c2csc(CSc3ccccc3)n2)c(=O)[nH]c1C`: below 0.5 µM; `CCOC(=O)c1cc(-c2csc(-c3ccnc(NCC(N)=O)c3)n2)c(=O)[nH]c1C`: below 0.5 µM.
Next, `CCOC(=O)c1cc(-c2csc(-c3ccncc3)n2)c(=O)[nH]c1COCc1ccccc1`: below 0.5 µM; `CC(C)c1ccc(-c2csc(-c3ccncc3)n2)c(=O)[nH]1`: below 0.5 µM.
Next, `CCOC(=O)c1cc(-c2csc(CS(=O)(=O)c3cccs3)n2)c(=O)[nH]c1C`: below 0.5 µM; `CCOC(=O)c1cc(-c2csc(-c3ccnc(NCc4ccccc4)c3)n2)c(=O)[nH]c1C`: below 0.5 µM.
Molecule `CCOC(=O)c1cc(-c2csc(CS(=O)(=O)c3ccccn3)n2)c(=O)[nH]c1C` returned an IC50 below 0.5 µM.
Next, `CCOC(=O)c1cc(-c2csc(-c3ccnc(CC)c3)n2)c(=O)[nH]c1C`: below 0.5 µM; `CCOC(=O)c1cc(-c2csc(CS(=O)(=O)c3ccc(Cl)cc3)n2)c(=O)[nH]c1C`: below 0.5 µM; `CCc1[nH]c(=O)c(-c2csc(-c3ccncc3)n2)cc1C(=O)OCCN1CCCC1`: below 0.5 µM.
Next, `CCOC(=O)c1cc(-c2csc(-c3ccncc3)n2)c(=O)[nH]c1C`: below 0.5 µM.
Consider `CCOC(=O)c1cc(-c2csc(-c3ccnc(NCc4ccccn4)c3)n2)c(=O)[nH]c1C`, for which the IC50 was below 0.5 µM.

As a reminder, the IC50 is the point on the concentration scale where inhibition reaches its midpoint. A low value points to greater potency in that assay.
